From ChEMBL document CHEMBL1128628, “in vivo potent antimalarial 1,2,4-trioxanes: Synthesis and activity of 8-(-arylvinyl)-6,7,10-trioxaspiro[4,5]decanes and 3-(-arylvinyl)-1,2,5-trioxaspiro[5,5]undecanes against Plasmodium berghei in mice” (1995)
The source made the active and inactive calls. The calls are words filed in the database; no cut-off is given here.

system: Mus musculus; experiment: Evaluated for antimalarial activity against Plasmodium berghei in mice (Mus musculus) at 30 mg/kg on day 6; type: functional

Structure (SMILES) | Suppression [%]
C=C(c1ccc(Cl)cc1)C1COC2(CCCC2)OO1 (stereo unspecified) | >90
C=C(c1ccccc1)C1COC2(CCCC2)OO1 (stereo unspecified) | >90

system: Mus musculus; experiment: Evaluated for antimalarial activity against Plasmodium berghei in mice (Mus musculus) at 90 mg/kg; active; type: functional, organism-based; parameters: dose 90 mg/kg

Structure (SMILES) | Activity
C=C(c1ccc(F)cc1)C1COC2(CCCCC2)OO1 (stereo unspecified) | Active
C=C(c1ccc(OC)cc1)C1COC2(CCCC2)OO1 (stereo unspecified) | Active
C=C(c1ccc(F)cc1)C1COC2(CCCC2)OO1 (stereo unspecified) | Active
C=C(c1ccc(C)cc1)C1COC2(CCCC2)OO1 (stereo unspecified) | Active
C=C(c1ccc(Cl)cc1)C1COC2(CCCC2)OO1 (stereo unspecified) | Active
C=C(c1ccccc1)C1COC2(CCCC2)OO1 (stereo unspecified) | Active
C=C(c1ccc(Cl)cc1)C1COC2(CCCCC2)OO1 (stereo unspecified) | Active

system: Mus musculus; experiment: Evaluated for antimalarial activity against Plasmodium berghei in mice (Mus musculus) at 90 mg/kg; inactive; type: functional, organism-based; parameters: dose 90 mg/kg

Structure (SMILES) | Activity
C=C(c1ccc(OC)cc1)C1COC2(CCCCC2)OO1 (stereo unspecified) | inactive
C=C(c1ccccc1)C1COC2(CCCCC2)OO1 (stereo unspecified) | inactive
C=C(c1ccccc1)C1(C)COC2(CCCC2)OO1 (stereo unspecified) | inactive
C=C(c1ccc(C)cc1)C1COC2(CCCCC2)OO1 (stereo unspecified) | inactive
C=C(c1ccc(Cl)cc1)C1(C)COC2(CCCC2)OO1 (stereo unspecified) | inactive
C=C(c1ccccc1)C1(C)COC2(CCCCC2)OO1 (stereo unspecified) | inactive
C=C(c1ccc(Cl)cc1)C1(C)COC2(CCCCC2)OO1 (stereo unspecified) | inactive
